{
  "source": "patent US20240279212A1",
  "about": "“NOVEL INTERMEDIATE FOR PREPARATION OF PYROXASULFONE” (UPL LIMITED, priority 2021, published 2024)",
  "key": {"[1]": {"assay": "Particle size distribution of Pyroxasulfone prepared in Example 8", "format": "physicochemical", "details": "product of Example 8 (H2O2/sodium tungstate oxidation, isopropyl alcohol/water treatment)"}, "[2]": {"assay": "Bulk density of Pyroxasulfone prepared in Example 8", "format": "physicochemical", "details": "product of Example 8 (H2O2/sodium tungstate oxidation, isopropyl alcohol/water treatment)"}},
  "data": [
    {"smiles": "Cn1nc(C(F)(F)F)c(CS(=O)(=O)C2=NOC(C)(C)C2)c1OC(F)F", "note": "[Pyroxasulfone, 3-[5-(difluoromethoxy)-1-methyl-3-(trifluoromethyl)pyrazol-4-ylmethylsulfonyl]-4,5-dihydro-5,5-dimethyl-1,2-oxazole]", "values": [
      {"measurement": "Particle Size Distribution: D50", "setting": "[1]", "value": 113.30, "unit": "μm"},
      {"measurement": "Bulk density", "setting": "[2]", "value": "0.54 to 0.57", "unit": "g/mL"}
    ]}
  ]
}
